The nature of data set [1]: Conversion process: active dissolved in supernatant of centrifuged MAS/tannic acid conversion samples. The conditions noted are these: for Assay (% Dissolved) 10 mins / Assay (% Dissolved) 20 mins / Assay (% Dissolved) 30 mins: in-situ tannate conversion, centrifuged at 6500 rpm; for Assay (% Dissolved) 10 mins: supernatant after 10 min mixing; for Assay (% Dissolved) 20 mins: supernatant after 20 min mixing; for Assay (% Dissolved) 30 mins: supernatant after 30 min mixing.
Experimental: The active solution of carbetapentane citrate is prepared by dissolving 24.4 g of carbetapentane citrate into 60 ml of water. 530 ml of purified water is placed in a mixing tank and 53.7 g of MAS is added in small portions while mixing the water to form a dispersion. Once the dispersion is uniform and lump-free, 46.7 g of tannic acid (TA), (three times that of the free base of the active), is folded into the dispersion using a planetary mixer with a sweep blade. […] The salt solution is then added in small portions, while continuing to stir the MAS/tannic acid dispersion using the planetary mixer. After all of the salt solution is added, the weight is made up to 800 g with purified water. Mixing is continued and 5 g samples of the conversion after ten, twenty and thirty minutes of mixing are taken in a centrifuge tube. The samples are subsequently centrifuged at 6500 rpm and the resulting supernatant solution is assayed for the presence of active. At the end of thirty minutes, a 10 g sample of the conversion is taken for assay of the actives.

The conditions of data set [2]: cited from earlier work.

On to `CCN(CC)CCOCCOC(=O)C1(c2ccccc2)CCCC1` [Carbetapentane], for which, in data set [1], the “Assay (% Dissolved) 10 mins” value amounted to 0.08%, the “Assay (% Dissolved) 20 mins” value came to 0.08% and the “Assay (% Dissolved) 30 mins” value is 0.09%.
On to `CNC[C@H](O)c1cccc(O)c1.Cl` [Phenylephrine HCI], for which the soluble in water result in data set [2] is reported as “about 100.0%”. Also, the “amount of active ingredient present in solution at the ten, twenty and thirty minute mixing times” value in data set [1] (in-situ tannate conversion in MAS/tannic acid dispersion) is “more than 47.0%”.
In the case of `CN(C)CCC(c1ccc(Cl)cc1)c1ccccn1` (centres unmarked) [Chlorpheniramine], in data set [1], the “Assay (% Dissolved) 10 mins” value is reported as 0.12%, the “Assay (% Dissolved) 20 mins” value came to 0.13% and the “Assay (% Dissolved) 30 mins” value is 0.14%.
In the case of `COc1ccc(CN(CCN(C)C)c2ccccn2)cc1` [Pyrilamine], in data set [1], the “Assay (% Dissolved) 10 mins” value came out at 0.10%, the “Assay (% Dissolved) 20 mins” value is on record as 0.10% and the “Assay (% Dissolved) 30 mins” value is 0.11%.
With `CNC[C@H](O)c1cccc(O)c1` [Phenylephrine], in data set [1], the “Assay (% Dissolved) 10 mins” value stood at 37.14%, the “Assay (% Dissolved) 20 mins” value was found to be 47.6% and the “Assay (% Dissolved) 30 mins” value turned out to be 47.6%.

Values taken from patent US7094429B2, “Process for preparing tannate liquid and semi-solid dosage forms” (Kiel Laboratories, Inc., priority 2001, dated 2006).
